Results as given in PubChem BioAssay AID179 (DTP/NCI, 2004).
Where “and” joins values, the source holds several entries; their conditions need not be identical. Identical values can stand only once. Calls of active or inactive are those of the source.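 Rule for the calls: active = compounds giving half or more protection of infected cells from virus-caused growth loss, again on retest; inactive = the rest.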 Where a SMILES comes first, the peptide text is derived from it. Bridges are numbered along the chain shown (N, C = ends). Roman numbers before positions name the chains, in order. [ ]: non-standard residue; d: D form. pGlu = O=C1CC[CH](C(=O)O)N1

System: CEM cells HIV-1 protection, formazan growth assay
Assay: NCI AIDS Antiviral Assay
Settings: for IC50: measured here: growth of uninfected CEM cells
Procedure, shortened: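 Category rules: moderately active means at least 50% protection on retest, and confirmed active means 100% protection reproducibly. The underlying data came from a formazan growth assay in HIV-1-infected CEM cells.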

Row | SMILES | EC50 [µM] | IC50 | outcome
1 | NC(CC(C(=O)O)c1ccccc1)C(=O)O (stereo not given) | > 200 | 112 µM | 
2 | C[C@@](O)(/C=C/[C@H]1CC=CC(=O)O1)[C@@H](C[C@@H](O)\C=C/C=C\C=C\CO)OP(=O)(O)O |  |  | inactive
3 | CCOP(=O)(OCC)/C(C#N)=C/c1ccc2c(c1)OCO2 | > 427 | > 427 µM | 
4 | COC[C@H]1OC(=O)c2coc3c2[C@@]1(C)C1=C(C3=O)[C@@H]2CCC(=O)[C@@]2(C)C[C@H]1OC(C)=O |  |  | inactive
5 | O=C(NNC(=O)c1csc(NC(=S)NC2CCCCC2)n1)c1ccccc1 | > 200 | 14.5 µM | 
6 | OC1C2CN3CCN(C2)CC1(c1ccccc1)C3 (stereo not given) | > 200 | > 200 µM | 
7 | CC1(C)CC(=O)C2=C(C1)NC(SSC1=C(C#N)C(c3ccc(F)cc3)C3=C(CC(C)(C)CC3=O)N1)=C(C#N)C2c1ccc(F)cc1 (stereo not given) | 19.1 | 39.8 µM | 
8 | COC(=O)C1=C(OC)C(=P2(c3ccccc3)CC(c3ccccc3)=C2c2ccccc2)C(C(=O)OC)=C1C(=O)OC (stereo not given) |  |  | inactive
9 | O=c1[nH]c(/C=C(\O)c2ccncc2)nc2ccccc12 | > 2.82 | > 2.82 µM | 
10 | CC#CCOC(=O)c1ccccc1OC(C)=O | > 200 | > 200 µM | 
11 | COc1ccc(OC)c(/C=C/NC=O)c1 | > 200 | > 200 µM | 
12 | O=c1cc2c(n[nH]1)CCCC2 | > 708 | > 708 µM | 
13 | Oc1ccccc1C=Nc1ccc(Oc2ccc(Cl)cc2)c(Cl)c1 | > 200 | 13.2 µM | 
14 | COc1cc(C)c(/C=C/C(=O)N2C(=O)OC[C@@H]2c2ccccc2)c(C)c1 | > 200 | 26.9 µM | 
15 | CSC1=C(C#N)C(=O)N(c2ccc(C)cc2)C(=S)C1C#N (stereo not given) | > 200 | 174 µM | 
16 | CCCC1=C(CC)C(C(=O)Nc2c(C)cccc2C)=NC(S)N1 (stereo not given) | > 107 | > 107 µM | 
17 | Cn1cc(NC(=O)c2nc(NC(=O)c3nc(NC(=O)/C=C/C(=O)Nc4cn(C)c(C(=O)Nc5cn(C)c(C(=O)Nc6cn(C)c(C(=O)NCCC(=N)N)n6)n5)n4)cn3C)cn2C)nc1C(=O)NCCC(=N)N | > 50.1 | 8.51 µM | 
18 | NC1=CN2c3ccccc3N(CC(=O)N3CCOCC3)C2C=C1 (stereo not given) | > 200 | > 200 µM | 
19 | COc1ccc(N=Nc2c(N)nn3cc4c(nc23)-c2ccccc2C4)cc1 | > 200 |  | 
20 | Nc1ccc(S(=O)(=O)Cc2ccc(C(=O)O)cc2)cc1 | > 324 | > 324 µM | 
21 | COc1cc(OC)c2c(=O)cc(-c3ccncc3)oc2c1 |  |  | inactive

Row | SMILES | EC50 [µM] | IC50 | outcome
22 | Cn1c2ccccc2n2c(=O)c(-c3ccc(Cl)cc3)nnc12 | > 200 | > 200 µM | 
23 | N#C/C(=C\c1ccc(C#N)cc1)C(=O)O | > 36.3 | > 36.3 µM | 
24 | Cc1ccc2c(c1)[nH]c(=S)n2C=C(C#N)C#N | > 200 | > 200 µM | 
25 | C=C[C@H]1C=Cc2ccccc2[C@]1(C=O)CCC1(C)OCCO1 | > 832 | 676 µM | 
26 | CCCCCCCCCCCCSSSCCCCCCCCCCCC | > 200 | > 200 µM | 
27 | CCOC(=O)C(NC(=O)c1ccccc1)(N1CCN(c2cc3c(cc2F)c(=O)c(C(=O)O)cn3C2CC2)CC1)C(F)(F)F (stereo not given) | > 200 | 20.4 µM | 
28 | Cn1nc(-c2ccccc2)c(C(=O)/C=C/c2ccc(F)cc2)c(N2CCCC2)c1=O | 26.3 | 36.3 µM | 
29 | COC(=O)Nc1cn2nc(N)sc2n1 | > 200 | > 200 µM | 
30 | COC(=O)C(/C(=N\O)C(=O)Nc1ccc(Br)cc1)c1nc2ccccc2[nH]c1=O (stereo not given) | > 141 | > 141 µM | 
31 | C1CSCCCSCCSCCCSC1 | > 18.2 | > 18.2 µM | 
32 | COC(=O)[C@]1(NC(=O)c2ccccc2)C[C@H]1C=O | > 200 | 170 µM | 
33 | OC12c3ccccc3C1CCCCCCCCCC21OCCO1 (stereo not given) |  |  | inactive
34 | O=C1CC2CCC(C1)S2=O (stereo not given) | > 200 | > 200 µM | 
35 | Nc1nc2c(N)cc(C(F)(F)F)cc2nc1-c1ccccc1 | > 17 | > 17 µM | 
36 | OC(c1ccccc1)c1c(-c2ccccc2)oc(-c2ccccc2)c1C(O)c1ccccc1 (stereo not given) |  |  | inactive
37 | O=C(CC(=O)N(C(=O)c1ccccc1)c1ccc(Cl)cc1)N/N=C\c1cc(N=Nc2ccccc2Cl)ccc1O | > 100 | > 100 µM | 
38 | CC1CN(C(=O)CN2CCC(CCCCN(C)C)CC2)c2ccccc2NC1=O (stereo not given) | > 251 | > 251 µM | 
39 | COP(=O)(OC)OC=C(Cl)Cl | > 200 | > 200 µM | 
40 | CC(C)=CCCC(C)C1=C(O)C(=O)C(C)=CC1=O (stereo not given) | > 2 | 0.589 µM | 
41 | CCN(CCNc1ccc(C)c2sc3ccccc3c(=O)c12)CC(C)(C)O | > 200 | 7.94 µM | 
42 | COc1cccc2nc3cc(C)c(C)cc3nc12 | > 30.2 | > 30.2 µM | 

Row | SMILES | EC50 [µM] | IC50 | outcome
43 | C/C=C1\CN2CCC34c5ccccc5N(C)C35OCC4(C(=O)OC)C1CC25 (stereo not given) | > 83.2 | 25.7 µM | 
44 | O=C1OCN(c2ccccc2)C12CCN(Cc1ccccc1)CC2 | > 200 | 28.8 µM | 
45 | CC1(C)NC(=O)C2(CC(O)C(O)C(OC(=O)c3ccccc3)C2)O1 (stereo not given) | > 263 | > 263 µM | 
46 | Cc1cc(NS(=O)(=O)c2ccc(Nc3c4ccccc4nc4ccc(C(=O)Nc5ccc(S(=O)(=O)N=C(N)N)cc5)cc34)cc2)no1 | > 200 | 110 µM | 
47 | COc1ccc2[nH]c3c(c2c1)[C@H](c1ccccc1)C[C@@H]1C(=O)N(c2ccccc2)C(=O)[C@H]31 |  |  | inactive
48 | C=C1CCc2ccccc2C1=O | > 200 | 31.6 µM | 
49 | CC(C)CC(NC(=O)C(CO)NC(=O)C(CCCCN)NC(=O)C(CCCCN)NC(=O)C(NC(=O)CNC(=O)C(NC(=O)C(CO)NC(=O)C(NC(=O)C(NC(=O)C(CO)NC(=O)C(CC(N)=O)NC(=O)C1CCC(=O)N1)C(C)C)C(C)C)C(C)O)C(C)C)C(=O)NC(Cc1ccccc1)C(=O)NC(CCC(N)=O)C(=O)O (stereo not given) ([pGlu]NSVVSTGVKKSLFQ-OH; configuration not given here) | > 30.9 | > 30.9 µM | 
50 | N#CC(=C1CCN(CCCC(=O)c2ccc(F)cc2)CC1)c1ccccc1 | > 200 | > 200 µM | 
51 | O=S(Cc1ccccc1)OOCCCCOS(=O)OCc1ccccc1 (stereo not given) | > 200 | 4.17 µM | 
52 | CC(NC(=O)CNC(=O)C(N)CO)C(=O)NC(CCC(N)=O)C(=O)NC(CCCCN)C(=O)N1CCCC1C(=O)NC(CCC(=O)O)C(=O)NC(CCC(=O)O)C(=O)NC(CCC(=O)O)C(=O)NC(CO)C(=O)NC(CO)C(=O)NC(CC(N)=O)C(=O)NC(C)C(=O)NC(Cc1cnc[nH]1)C(=O)NC(CO)C(=O)O (stereo not given) (H-SGAQKPEEESSNAHS-OH; configuration not given here) | > 100 | > 100 µM | 
53 | COc1ccc(/C=C(/NC(=O)c2ccccc2)C(=O)Nc2ccccc2)cc1OC | > 200 | > 200 µM | 
54 | CC(C)C(Nc1c2ccccc2[n+](C)c2ccccc12)C(=O)O (stereo not given) |  |  | inactive
55 | O=C(O)C12C3C4C1C1C2C3C1(Br)C41OCCO1 (stereo not given) | > 832 | > 832 µM | 
56 | c1ccc([P+](CC2CCCO2)(c2ccccc2)c2ccccc2)cc1 (stereo not given) | > 200 | 2.82 µM | 
57 | Cn1c(=O)c2nncnc2n(C)c1=O | > 200 | > 200 µM | 
58 | Cc1cc(C)nc(NS(=O)(=O)c2ccc(NC(=O)c3cccc4c(N)c5ccccc5nc34)cc2)n1 | > 44.7 | > 44.7 µM | 
59 | C=C[C@@H]1OC(=O)O[C@H]1CO | > 200 | > 200 µM | 
60 | C(=C\c1ccc(-c2cn3cc(/C=C/C=N/NC4=NCCN4)ccc3n2)cc1)/C=N/NC1=NCCN1 |  |  | inactive
61 | CSc1sc(C)cc1-c1nsc(=O)o1 | > 200 | > 200 µM | 
62 | CCOC(=O)NN(C(=O)OCC)C(C(=O)C1=CCCCC1)N(NC(=O)OCC)C(=O)OCC | > 200 | > 200 µM | 
63 | CC(NC(=O)C(N)CSSCC(N)C(=O)NC(C)C(=O)O)C(=O)O (stereo not drawn) (I: H-Cys-Ala-OH / II: H-Cys-Ala-OH; disulfide I:1-II:1; configuration not given here) | > 178 | > 178 µM | 

Row | SMILES | EC50 [µM] | IC50 | outcome
64 | CCOP(=O)(C=C=C1CCC2[C@@H]3CCc4cc(OC)ccc4C3CC[C@]12C)OCC (stereo not given in full) | > 200 | 2.09 µM | 
65 | COc1ccc(-c2c[se]c(=S)s2)cc1 | > 18.2 | > 18.2 µM | 
66 | Cc1oc2cc(O)ccc2c(=O)c1-c1ccccc1Br | > 200 | 16.6 µM | 
67 | NC(=O)c1cc2ccc(O)c(O)c2cn1 | > 209 | 2.95 µM | 
68 | O=C1CC(NC(=O)C(F)(F)F)c2c(Br)sc(N3CCNCC3)c21 (stereo not given) | > 200 | 162 µM | 
69 | CC1(C)CCc2cc3c(cc2O1)OCCC3O (stereo not given) |  |  | inactive
70 | COc1ccccc1NC(=O)C(/C=N/C(N)=S)=C(\C)O | > 200 | > 200 µM | 
71 | CCOC(=O)CSC1NC(C(=O)OC)CC1OC (stereo not given) | > 200 | > 200 µM | 
72 | CCOC(=O)/C=C/c1cccc(Cl)c1 | > 24.5 | > 24.5 µM | 
73 | CCCCCCCCCCCCCCCCCCNc1nc(=O)n(C2CC(OC(C)=O)C(COP(=O)(O)OCC3CCC(n4ccc(NC(=O)CCCCCCCCCCCCCCC)nc4=O)O3)O2)cc1F (stereo not given) | 10 | 44.7 µM | 
74 | O=C(Cn1c(=O)cc(Nc2ccccc2)c2ccccc21)Nc1ccccc1 | > 200 | 89.1 µM | 
75 | CC(=O)c1c(-c2cccc3ccccc23)c(C#N)c(=S)n(C2OC(CO)C(O)C(O)C2O)c1C (stereo not given) | > 200 | 132 µM and 53.7 µM | 
76 | C=C1CN(S(=O)(=O)c2ccc(C)cc2)CCCN(CC(C)CC)CCCN(S(=O)(=O)c2ccc(C)cc2)C1 (stereo not given) | > 58.9 | 2.57 µM | 
77 | Clc1nn2nnnc2c2ccccc12 | > 66.1 | 1.23 µM | 
78 | C[C@H]1C(=O)O[C@@H]1[C@H]1COC(C)(C)O1 | > 200 | > 200 µM | 
79 | Sc1ccc2ccccc2c1CNC1CCCCC1 | > 200 | 28.2 µM | 
80 | O=C1C(CN2CCCCC2)CCCC1CN1CCCCC1 (stereo not given) | > 550 | 6.17 µM | inactive
81 | Cc1nn(C(=O)c2ccc(Cl)cc2)c2c1C(c1ccc(O)cc1)SC(N)=N2 (stereo not given) | > 200 | > 200 µM | 
82 | CN1NC(=O)SC(=O)c2ccccc2C1=O |  |  | inactive
83 | COc1ccc(-c2c(C(C)=O)c(-c3ccccc3)n(C3OC(COC(C)=O)C(OC(C)=O)C(OC(C)=O)C3OC(C)=O)c(=S)c2C#N)cc1O (stereo not given) | > 200 | 24.5 µM and 38.9 µM | 
